Measurements taken from patent US10149841B2, “Compound of 3-hydroxyl pyridine, preparation method thereof and pharmaceutical use thereof” (SHENYANG SUNSHINE PHARMACEUTICAL CO. LTD., priority 2015, dated 2018).

Target: HIF Prolyl hydroxylases 2 (PHD2) (Homo sapiens (Human), UniProt Q9GZT9)
Assay: Inhibitory effect on PHD2 by fluorescence polarization (HIF-1α / VBC complex interaction)
Type: biochemical
Conditions: PHD2 0.5 μg/μl, FAM-HIF (556-575) 1 μM, FP readout with GST-VBC complex
Description: Biological Example 2: Detection of Inhibitory Effect of the Compounds on PHD2 (IC50)
The interaction between hypoxia-inducible factor HIF-1α and VBC complex (von Hippel-Lindau protein-Elongin B-Elongin C, VBC) was detected by Fluorescence polarization (FP) method, to measure the enzyme inhibitory activity of the HIF Prolyl hydroxylases 2 (PHD2) inhibitor compounds.
To a NETN (20 mM Tris.HCl, 100 mM NaCl, 1 mM EDTA, 0.5% NP-40, 1 mM PMSF) buffer containing 200 μM ascorbic acid, 20 μM α-ketoglutaric acid, 100 μM FeCl2 was added FAM-HIF (556-575) at a final concentration of 1 μM in the dark. Subsequently, the desired concentration of the test compound or the positive compound was added (the compound was replaced by the buffer in the negative control and the positive control). Finally, PHD2 was added at a final concentration of 0.5 μg/μl (PHD2 was replaced by the buffer in the negative control). They were mixed well and allowed to stand at room temperature for 30 minutes in the dark followed by 95° C. water bath for 1 minute, and then the reaction was terminated. After the temperature drops to room temperature, the sample was prepared well for use. EBC buffer (50 mM Tris.HCl, 120 mM NaCl, 0.5% NP-40) was added to the corresponding wells of a black 96-well test plate. A GST-VBC complex was added to the corresponding test wells at a final concentration of 300 nM (using the wells containing only EBC buffer as blank wells). Subsequently, the corresponding PHD2 prolyl hydroxylation reaction sample was added in the dark as a substrate with a final concentration of 100 nM. After mixing well, the lateral and longitudinal fluorescence intensity values were measured using a full-wavelength multifunctional microplate reader (TECAN infinite M1000) at an excitation wavelength of […] and an emission wavelength of 518 nm.
The fluorescence polarization (mP) was calculated: mP=1000×(lateral value−G factor×longitudinal value)/(lateral value+G factor×longitudinal value)
wherein, lateral value=lateral fluorescence intensity value of test well−lateral fluorescence intensity value of blank well, • longitudinal value=longitudinal fluorescence intensity value of test well−longitudinal fluorescence intensity value of blank well,
PHD2 inhibition rate (%) of the test compound was calculated according to the following formula: Inhibition rate (%)=1−(mP test well−mP negative control well)/(mP positive control well−mP negative control well).
The IC50 was calculated using the non-linear regression data analysis method of Graphpad Prism 4.0 software ([…]).

Chain of HIF Prolyl hydroxylases 2 (PHD2) (Q9GZT9 whole entry, species assumed): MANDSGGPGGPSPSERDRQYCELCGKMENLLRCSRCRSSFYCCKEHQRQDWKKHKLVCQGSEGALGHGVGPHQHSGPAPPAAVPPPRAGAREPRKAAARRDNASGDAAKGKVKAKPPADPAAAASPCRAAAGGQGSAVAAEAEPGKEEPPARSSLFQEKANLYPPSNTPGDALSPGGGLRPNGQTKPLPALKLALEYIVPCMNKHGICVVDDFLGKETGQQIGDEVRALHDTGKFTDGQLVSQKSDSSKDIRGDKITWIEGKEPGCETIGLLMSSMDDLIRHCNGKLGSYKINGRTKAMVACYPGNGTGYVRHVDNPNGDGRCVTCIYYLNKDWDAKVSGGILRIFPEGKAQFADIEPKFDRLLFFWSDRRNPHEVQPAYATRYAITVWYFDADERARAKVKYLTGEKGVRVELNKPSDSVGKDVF

IC50 [µM] | Structure (SMILES)
84 | O=C(O)CNC(=O)c1ncc(Oc2ccccc2)cc1O [Compound 1, 2-(3-hydroxy-5-phenoxy-2-pyridylformamido) acetic acid]
237 | Cc1cccc(Oc2cnc(C(=O)NCC(=O)O)c(O)c2)c1C [Compound 5, 2-(5-(2,3-dimethylphenoxy)-3-hydroxypyridine-2-formamido) acetic acid]
91 | O=C(O)CNC(=O)c1ncc(Oc2ccc3ccccc3c2)cc1O [Compound 8, 2-(3-hydroxy-5-(naphthalen-2-oxo)pyridine-2-formamido) acetic acid]
15 | O=C(O)CNC(=O)c1ncc(Oc2cccc(F)c2F)cc1O [Compound 9, 2-(5-(2,3-difluorophenoxy)-3-hydroxypyridine-2-formamido) acetic acid]
63 | Cc1ccc(Oc2cnc(C(=O)NCC(=O)O)c(O)c2)c(C)c1 [Compound 19, 2-(5-(2,4-dimethylphenoxy)-3-hydroxypyridine-2-formamido) acetic acid]
236 | O=C(O)CNC(=O)c1ncc(Oc2cccc(Cl)c2)cc1O [Compound 22, 2-(5-(3-chlorophenoxy)-3-hydroxypyridine-2-formamido) acetic acid]
